This assay concerns Lmna^G609G/G609G fibroblasts. The experiment in a line: Senescence-associated β-galactosidase activity in mouse progeroid cells. Format: cell-based. As to conditions: 5 µM. The procedure: Confocal fluorescence microscopy images are representative of 2 independent experiments. […] Representative cropped immunoblots are shown. […] MW, molecular weight (in kDa) markers. (C) PROTAC 2 decreases senescence‐associated β‐galactosidase (SA‐βgal) activity, interleukin (IL) 1α and p16 senescent markers. Lmna^G609G/G609G (G609G) or Lmna^+/+ (WT) fibroblasts were incubated with vehicle or compound 2 (5 µM). […] Data were analysed using one‐way ANOVA followed by Dunnett's post–hoc test. ^*, p < 0.05; ^**, p < 0.01, ^***, p < 0.001, ^****, p < 0.0001 vs G609G cells. […]
TBS-T and proteins were visualized by quimioluminiscence (GE Healthcare […]
SA β-galactosidase activity was determined by the FDG method. […]
ferrocyanide, 0.6 mL 5 M NaCl, 0.2 mL 0.2 M MgCl2, (all from Sigma Aldrich) and 6.2 mL of deionized water in a total volume of 20 mL] in the dark in a humidified incubator at 37 °C for 24 h without CO2 supply. Then, an equal volume of the supernatant of each well was transferred to a new 96-well plate for fluorescence measurement. The resultant production of fluorescein was measured using a FluoStar Optima instrument (BMG Labtech) with an excitation of 485 nm and emission at 535 nm. […]
Total RNA was extracted by RNAeasy Mini Kit (Qiagen) according to the manufacturer instructions and subsequently quantified using the NanoPhotometer N60 (Implen). […]

The structures appear in SMILES notation.

On to `CC1(C)Oc2cc3oc(=O)ccc3cc2C[C@@H]1OC(=O)CCCCCNc1cccc2c1C(=O)N(C1CCC(=O)NC1=O)C2=O` (stereo partly shown) [compound 2], for which the “senescence‐associated β‐galactosidase (SA‐βgal) activity” value is recorded as “significantly reduced”.

The values above are taken from paper PMC13252604, “First Generation Proteolysis Targeting Chimeras (PROTACs) for the Treatment of Progeria” (Advanced Science, 2026).
